From PMC10945555, “Improving Activity of New Arylurea Agents against Multidrug-Resistant and Biofilm-Producing Staphylococcus epidermidis” (ACS Medicinal Chemistry Letters, 2024)
Values after ≈ are worked out from the molar mass of the structure shown. Like-named read-outs stand apart in the source and are kept apart here.

What was measured:
[1] = test system: Staphylococcus epidermidis ATCC 12228; assay: MIC, broth microdilution, MSSE reference strain; type: cell-based
From the text: (§1) These strains included susceptible, multidrug-resistant, and biofilm-producing strains of S. epidermidis and S. aureus (MSSE, MDR/BPSE, and MDR/BPSA, respectively). The cornerstone antibiotic linezolid served as a positive control (Table 1). The impact of structural modifications at the aryloxy fragment and the aromatic moiety bound to the propyl linker on the inhibitory activity was initially investigated. […] Further optimization focused on evaluating the impact of the type of substituent and its position on the arylsulfonamide fragment’s activity.
(§2) 2 Biological assay protocols
(§3) Microbiological tests were carried out under aseptic conditions in a laminar chamber of the 2nd […]
(§4) (BioTectum 1.2, Alchem Poland). The assessment of antimicrobial activity was carried out for final compounds in the form of free bases, soluble in DMSO (Merck, Germany), at the initial […]
(§5) concentration of 1 mg/mL. […]
(§6) were provided by Cayman Chemical, USA.
(§7) The activity of all newly synthesized compounds was tested in vitro on a panel of selected reference strains from the American Type Culture Collection (ATCC) of Gram-positive […]
(§8) 2.2 Effect of evaluated compounds on planktonic cells
(§9) The susceptibility of three reference bacterial strains (Staphylococcus epidermidis ATCC […]
(§10) Table S1) and 81 clinical MDR S. epidermidis (Table S2) to the tested compounds was assessed by determining the MIC value (Minimal Inhibitory Concentration) by microdilution in a liquid medium in 96-well flat-bottom cell culture plates (Nest Biotechnology Scientific, USA). The antibacterial properties of the compo unds were tested in the concentration range from 50 µg/mL to 0.1 µg/mL by making a series of double dilutions of the compound in liquid Mueller -Hinton II Broth Cation Adjusted (MHB II, BBL TM, USA) according to the European Committee on […]
(§11) Antimicrobial Susceptibility Testing guidelines (EUCAST).2,3 The determinations were performed twice. The MIC50 and MIC90 values were determined for each of the tested

[2] = test system: Staphylococcus epidermidis ATCC 35984; assay: MIC, broth microdilution, MDR/BPSE reference strain; type: cell-based; conditions: for MIC: Staphylococcus epidermidis, ATCC35984, read-out: MIC MDR/BPSE, Staphylococcus epidermidis ATCC 35984
From the text: as §1, §2, §3, §4, §5, §6, §7, §8, §9, §10, §11

[3] = test system: Staphylococcus aureus ATCC BAA-976; assay: MIC, broth microdilution, MDR/BPSA reference strain; type: cell-based
From the text: as §1, §2, §3, §4, §5, §6, §7, §8, §9, §10, §11

[4] = test system: Acinetobacter baumannii ATCC 19606; assay: MIC, Gram-negative reference strain; type: cell-based; conditions: Acinetobacter baumannii, ATCC19606
Method: as §2, §3, §4, §5, §6, §7, §8, §9, §10, §11

[5] = test system: Escherichia coli ATCC 25922; assay: MIC, Gram-negative reference strain; type: cell-based; conditions: Escherichia coli, ATCC25922
Method: as §2, §3, §4, §5, §6, §7, §8, §9, §10, §11

[6] = test system: Pseudomonas aeruginosa ATCC 27853; assay: MIC, Gram-negative reference strain; type: cell-based; conditions: Pseudomonas aeruginosa, ATCC27853, read-out: MIC P. aeruginosa
Method: as §2, §3, §4, §5, §6, §7, §8, §9, §10, §11

Gram-negative bacteria = assay: MIC, tested Gram-negative bacteria (hit screening); type: cell-based
From the text: (§12) Despite numerous efforts to ensure sterility and encourage the prudent use of currently available antibiotics, morbidity rates persist at high levels. These findings underscore the pressing need for the development of a novel class of potential antimicrobial agents targeting multidrug-resistant and biofilm-forming S. epidermidis. […] Herein we present the discovery of new aryloxy[1-(thien-2-yl)propyl]piperidines with improved antibacterial activity compared to compound I, evaluated against a spectrum of clinical S. epidermidis isolates (81 strains), including multidrug-resistant and biofilm-forming strains. We also determined their bacteriostatic/bactericidal properties and conducted a real-time analysis of bacterial growth. Finally, we evaluated the ability of the most promising compound, 25, in terms of its activity and safety over mammalian cell lines, to disrupt the staphylococcal cell membranes of clinical S. epidermidis.

[7] = test system: reference susceptible and multidrug-resistant S. epidermidis and S. aureus strains; assay: MIC, reference S. epidermidis and S. aureus strains (hit screening); type: cell-based
From the text: as §12

H9c2 cells = assay: Cytotoxicity, MTT assay, cardiomyocytes; type: cell-based; conditions: Rattus norvegicus, 24 h, n = 3
Method: (§13) The following cell models were used in the research: rat cardiomyocytes (H9c2 line) and human skin fibroblasts (BJ line). All cell lines used in the work are commercially available and were purchased from ATCC banks (the American Type Culture Collection, Manassas, VI, USA). Cell cultures were carried out in an incubator under standard conditions (37°C, 5% CO 2).
(§14) Culture media (Dulbecco's Modified Eagle's Medium -DMEM (H9c2) and Eagle's Minimum Essential Medium-EMEM (BJ) were supplemented with 10% bovine serum and a 1% mixture of penicillin and streptomycin antibiotics. […]
(§15) doxorubicin (a cytotoxic drug) were used as reference and positive control, respectively. […]
(§16) incubated with studied compound in appropriate concentration for next 24 h. Then MTT solution (5 mg/mL) was transferred into culture medium of incubated cells. After 3 h, once dark crystals of formazan were produced in cells, medium was aspirated and 100 μ L of DMSO was added to dissolve formazan. Absorbance of DMSO solution was read on a multiwell plate reader (Spectra Max iD3, Molecular Devices) at 570 nm. In order to determine viability, absorbance of experimental wells was divided by absorbance of contro l well (not treated) and multiplied by 100 (%). Three separate experiments were performed. IC 50 was calculated using non-linear regression method in OriginPro software. […]

BJ cells = assay: Cytotoxicity, MTT assay, skin fibroblasts; type: cell-based, human; conditions: Homo sapiens, MTT, 24 h, n = 3
Method: as §13, §14, §15
as §16, with “solution” for “incubated with studied compound in appropriate concentration for next 24 h. Then MTT solution”

[8] = Staphylococcus aureus, ATCCBAA976, read-out: MIC MDR/BPSA
[9] = ATCC12228, Staphylococcus epidermidis ATCC 12228, read-out: MIC MSSE
[10] = ATCCBAA976, Staphylococcus aureus ATCC BAA-976, read-out: MIC MDR/BPSA

Compound | MIC [2] [µg/mL] | MIC [3, 8] [µg/mL] | MIC [1, 9] [µg/mL] | MIC [3, 10] [µg/mL] | further results
O=S(=O)(NC1CCN(CCC(Oc2cccc(C(F)(F)F)c2)c2cccs2)CC1)c1cccc(Cl)c1 (stereo not shown) [Compound 13] | 3.12 (≈ 5.59 µM) | 3.12 (≈ 5.59 µM) |  |  | MIC ([1]; ATCC12228, read-out: MIC MSSE): 3.12 µg/mL (≈ 5.59 µM)
O=S(=O)(NC1CCN(CCC(Oc2ccc(C(F)(F)F)cc2)c2cccs2)CC1)c1ccccc1 (stereo not shown) [Compound 15] | 6.25 (≈ 11.9 µM) |  | 12.5 (≈ 23.8 µM) | 12.5 (≈ 23.8 µM) | 
O=S(=O)(NC1CCN(CCC(Oc2ccc(C(F)(F)F)cc2)c2cccs2)CC1)c1ccccc1Cl (stereo not shown) [Compound 16] | 6.25 (≈ 11.2 µM) |  | 50 (≈ 89.4 µM) | 50 (≈ 89.4 µM) | 
O=S(=O)(NC1CCN(CCC(Oc2ccc(C(F)(F)F)cc2)c2cccs2)CC1)c1cccc(F)c1 (stereo not shown) [Compound 17] | 6.25 (≈ 11.5 µM) | 6.25 (≈ 11.5 µM) | 12.5 (≈ 23 µM) |  | 
Cc1cccc(S(=O)(=O)NC2CCN(CCC(Oc3ccc(C(F)(F)F)cc3)c3cccs3)CC2)c1 (stereo not shown) [Compound 19] | 0.2 (≈ 0.371 µM) |  | 50 (≈ 92.8 µM) | 50 (≈ 92.8 µM) | 
COc1cccc(S(=O)(=O)NC2CCN(CCC(Oc3ccc(C(F)(F)F)cc3)c3cccs3)CC2)c1 (stereo not shown) [Compound 20] | 0.1 (≈ 0.18 µM) |  | 50 (≈ 90.1 µM) | 25 (≈ 45.1 µM) | 
O=S(=O)(NC1CCN(CCC(Oc2ccc(C(F)(F)F)cc2)c2cccs2)CC1)c1ccc(F)cc1 (stereo not shown) [Compound 22] | 1.6 (≈ 2.95 µM) |  | 6.25 (≈ 11.5 µM) | 6.25 (≈ 11.5 µM) | 
O=S(=O)(NC1CCN(CCC(Oc2ccc(C(F)(F)F)cc2)c2cccs2)CC1)c1ccc(Cl)cc1 (stereo not shown) [Compound 23] | 0.2 (≈ 0.358 µM) |  | 12.5 (≈ 22.4 µM) | 6.25 (≈ 11.2 µM) | 
O=C(Nc1ccccc1)NC1CCN(CCC(Oc2ccc(C(F)(F)F)cc2)c2cccs2)CC1 (stereo not shown) [Compound 24] | 6.25 (≈ 12.4 µM) | 6.25 (≈ 12.4 µM) |  |  | MIC ([1]; ATCC12228, read-out: MIC MSSE): 6.25 µg/mL (≈ 12.4 µM)
O=C(Nc1ccc(F)cc1)NC1CCN(CCC(Oc2ccc(C(F)(F)F)cc2)c2cccs2)CC1 (stereo not shown) [Compound 26] | ≥ 6.25 |  | 50 (≈ 95.9 µM) |  | 
O=C(Nc1ccc(Cl)cc1)NC1CCN(CCC(Oc2ccc(C(F)(F)F)cc2)c2cccs2)CC1 (stereo not shown) [Compound 27] | ≥ 6.25 |  | 50 (≈ 92.9 µM) |  | 
O=S(=O)(NC1CCN(CCC(Oc2cccc(C(F)(F)F)c2)c2ccccc2)CC1)c1cccc(Cl)c1 (stereo not shown) [I] | 3.12 (≈ 5.65 µM) | 3.12 (≈ 5.65 µM) |  |  | MIC ([1]; ATCC12228, read-out: MIC MSSE): 3.12 µg/mL (≈ 5.65 µM); MIC MDR/BPSE ([2]; Staphylococcus epidermidis ATCC 35984): 6.25 µg/mL (≈ 11.3 µM); MIC [4]: 50 µg/mL (≈ 90.4 µM); MIC [5]: 50 µg/mL (≈ 90.4 µM); MIC [6]: 50 µg/mL (≈ 90.4 µM); activity towards Gram-negative bacteria (Gram-negative bacteria): Not active; MIC (Gram-negative bacteria; tested Gram-negative bacteria): ≥ 25 µg/mL; MIC [7]: 3.12 to 6.25 µg/mL (≈ 5.65 to 11.3 µM)
COc1cccc2c1C(=O)c1c(O)c3c(c(O)c1C2=O)C[C@@](O)(C(=O)CO)C[C@@H]3O[C@H]1C[C@H](N)[C@H](O)[C@H](C)O1 [doxorubicin, reference compound] |  |  |  |  | IC50 (H9c2 cells): 0.39 µg/mL (≈ 0.718 µM); IC50 (BJ cells): 0.39 µg/mL (≈ 0.718 µM)
